Experimental data from patent US20220323376A1, “METHODS AND COMPOSITIONS FOR SENSITIZING CANCER CELLS TO DRUG-INDUCED APOPTOSIS” (New York University, priority 2019, published 2022).

Tests used:
[1] = tested on: mouse AML cell line RN2 (MLL-AF9; Kras)
Method: ZIP model was used to calculate the delta-score of synergisms of the combination treatments. […] ZIP model was used to calculate the delta-score of synergisms of the combination treatments. […] ZIP model was used to calculate the delta-score of synergisms of the combination treatments.
Drug Treatment and IC50 Measurements. Cells were plated in 96-well plates and exposed to Venetoclax at concentrations ranging from 0.4 nM to 300 nM (for MOLM-13 and MV4-11), 150 nM to 10 μM (for Venetoclax-resistant cell lines and THP-1) with a minimum of three technical replicates per concentration per cell line. Cell viability was measured with the CellTiter-Glo reagent (Promega) according to manufacturer's instructions. Absolute viability values were converted to percentage viability versus DMSO control treatment, and then non-linear fit of log(inhibitor) versus response (three parameters) was performed in GraphPad Prism v7.0 to obtain the IC50 values. For Venetoclax and Azacitidine combined treatment, two drugs were mixed at the fixed ratio (Ven:Aza=1:4) before diluting to certain concentrations.

[2] = tested on: human AML cell lines (MOLM-13, MV4-11, THP-1, KASUMI-1); assay: Venetoclax/drug IC50 by CellTiter-Glo in sgRNA-transduced AML cell lines; type: cell-based; details: for Synergistic effect of CLPB ablation with the drug: MOLM-13 and MV4-11 with sgCLPB or sgRosa, 48 hrs
Excerpt: (§1) Drug Treatment and IC50 Measurements.

[3] = tested on: human AML cell lines (MOLM-13, KASUMI-1); assay: IC50 curves of AMG176 in combination with Mdivi-1; type: cell-based; details: AML cells
[4] = tested on: MOLM-13-Par or MOLM-13-VR xenografts; assay: MOLM-13 parental and VR xenografts in NSG mice, Venetoclax by oral gavage; type: in vivo, NOD SCID gamma (NSG) mice
Method: Animal experiments. For in vivo experiments, Cas9 and luciferase-expressing parental and Venetoclax-resistant MOLM-13 cells were transduced with sgRosa or sgCLPB #1 constructs. At day 2 post-transduction, sgRNA positive cells (GFP) were sorted by FACS. 0.5 million sgRNA-expressing leukemia cells were intravenously injected into recipient NSG mice. For experiments that required drug administration, recipient mice were treated with vehicle or Venetoclax (100 mg/kg, Selleckchem) daily by oral gavage from day 6 to day 20. Venetoclax was prepared in 10% ethanol, 30% polyethyleneglycol-400 (Sigma), and 60% phosal 50 propylene glycol (Lipoid). Whole-body bioluminescent imaging was performed at indicated time points by intraperitoneally injection of Luciferin (Goldbio) at a 50 mg/kg concentration and imaging was performed after 5 mins using an IVIS imager. Bioluminescent signals (radiance) were quantified using Living Image software with standard regions of interests (ROI) rectangles. Peripheral blood of recipient NSG mice was collected at indicated time points after transplantation, and sgRNA positive cells (GFP+) were analyzed by flow cytometry. All animal experiments were performed in accordance with protocols approved by the New York University Institutional Animal Care and Use Committee (IACUC, ID: IA16-00008_TR1).
Animals. […]

AML cells = assay: Cell death by Annexin V flow cytometry; type: cell-based, human
Method: Cell Cycle and Apoptosis. To assess cell cycle, we performed the 5-ethynyl-2′-deoxyuridine (EdU) incorporation assay using the Click-iT Plus EdU Alexa Fluor 647 kit as described in manufacturer's protocol (Life Technologies). Apoptosis analysis was determined using APC Annexin V (BD Bioscience) and 4′,6-Diamidino-2-Phenylindole, Dihydrochloride (DAPI) for DNA content. Both EdU and Annexin V stained cells were analyzed by flow cytometry and FlowJo software.

[5] = tested on: Venetoclax-resistant (VR) MOLM-13 and MV4-11 cells; assay: Venetoclax IC50 in parental versus Venetoclax-resistant (VR) AML cell lines; type: cell-based, human
Method: For the generation of the Venetoclax-resistant cell lines, MOLM-13 and MV4-11 were cultured in media containing increasing doses of Venetoclax (from 5 nM to 1000 nM) for more than 8 weeks to achieve complete resistance to the drug.
as §1

AML patients = details: cited from earlier work
[6] = tested on: AML cells (THP-1, MOLM-13, MV4-11); assay: Mitochondrial membrane potential by TMRM staining; type: cell-based, human; details: 16 hrs
Method: Mitochondrial Membrane Potential. Mitochondrial membrane potential was monitored cytofluorimetrically using tetramethylrhodamine methyl ester (TMRM). Cells were loaded with 10 nM TMRM in presence of 2 μM Cyclosporin H in Hank's Balanced Salt Solution (HBSS) supplemented with 10 mM HEPES, 30 min at 37° C. When indicated, the experiments were performed in cells pre-treated with Venetoclax for 16 hours at the indicated concentrations.

[7] = tested on: AML cells (THP-1, MOLM-13); assay: Western blotting of AML cell lysates after drug treatment; type: cell-based, human; details: for CLPB protein levels in cells surviving drug treatment: MOLM-13, Venetoclax (IC50) 10 days, Idarubicin 10 nM 2 days
Method: Biochemistry. Protein lysis was performed with RIPA buffer (Thermo Fisher Scientific) in presence of proteases inhibitor cocktail (PIC, Sigma) for 30 min at 4° C. After centrifugation at maximal speed for 20 min, supernatants were collected and protein concentration was determined using Bradford reagent (Bio-Rad).
Protein lysates (25-30 μg) were loaded onto 4%-12% Bis-Tris or 3%-8% Tris-acetate polyacrylamide gels (Thermo Fisher Scientific), transferred onto PVDF membranes (Millipore) and probed using the following antibodies: anti-CLPB polyclonal (1:2000, Proteintech, Cat #15743-1-AP), anti-TFAM (1:500, Santa Cruz, Cat #sc-376672), anti-OPA1 monoclonal (1:1000, BD Biosciences, Cat #612606), anti-SDHA monoclonal (1:2500, Abcam, Cat #ab14715), anti-HAX1 polyclonal (1:1000, Proteintech, Cat #11266-1-AP), anti-cytochrome c monoclonal (1:4000, Thermo Fisher Scientific, Cat #BDB556433), anti-caspase-3 monoclonal (1:1000, Proteintech, Cat #66470-2-Ig), anti-cleaved caspase-3 polyclonal (1:1000, Cell Signaling, Cat #9661S), anti-GRP75 monoclonal (1:1000, Santa Cruz, Cat #sc-133137), anti-TOM20 monoclonal (1:500, Santa Cruz, Cat #sc-17764), anti-p53 monoclonal (1:1000, Active Motif North America, Cat #39553), anti-BCL-2 polyclonal (1:200, R&D Systems, Cat #AF810-SP), anti-MCL1 polyclonal (1:1000, Proteintech, Cat #16225-1-AP), anti-BCL-XL monoclonal (1:500, R&D Systems, Cat #MAB894SP), anti-NOXA monoclonal (1:500, Abcam, Cat #ab13654), anti-GAPDH polyclonal (1:10000, Proteintech, Cat #10494-1-AP), anti-LAMIN A polyclonal (1:1000, Santa Cruz, Cat #sc-6214) and anti-ACTIN (1:10000, Millipore, Cat #MAB1501) antibodies. Isotype matched secondary antibodies were conjugated to horseradish peroxidase (GE Healthcare) and chemiluminescence was detected with ECL (Life Technologies) using films. Band densitometric analysis was performed using ImageJ (National Institutes of Health).

[8] = tested on: AML cells (THP-1 and MOLM-13); assay: Electron microscopy-based morphometric analysis of mitochondria; type: cell-based, human; details: THP-1 4 μM, MOLM-13 17 nM, 16 hrs
Method: Transmission Electron Microscopy. Cultured cells were fixed in 0.1M sodium cacodylate buffer (pH 7.4) containing 2.5% glutaraldehyde and 2% paraformaldehyde for 2 hrs and post-fixed with 1% osmium tetroxide and 1% potassium ferrocyanide for one hour at 4° C. Then block was stained in 0.25% aqueous uranyl acetate, processed in a standard manner and embedded in EMbed 812 (Electron Microscopy Sciences, Hatfield, Pa.). Ultrathin sections (60 nm) were cut, mounted on copper grids and stained with uranyl acetate and lead citrate. Stained grids were examined under Philips CM-12 electron microscope and photographed with a Gatan (4k×2.7k) digital camera. For morphometric analysis, maximal cristae width was measured using Image J (NIH) as shown in FIG. 4A in at least 50 randomly selected mitochondria from a minimum of 15 cells/experiment.

Structure (SMILES): CCN(CC)CCCC(C)Nc1ccnc2cc(Cl)ccc12 (stereo not drawn) [Chloroquine, N′-(7-chloroquinolin-4-yl)-N,N-diethylpentane-1,4-diamine]
- IC50 of chloroquine upon addition of Venetoclax plus Azacitidine [1]: vice versa

Structure (SMILES): Cc1sc2c(c1C)C(c1ccc(Cl)cc1)=N[C@@H](CC(=O)OC(C)(C)C)c1nnc(C)n1-2 [JQ-1]
- Synergistic effect of CLPB ablation with the drug [2]: no synergistic effect

Structure (SMILES): Nc1ccn([C@@H]2O[C@H](CO)[C@@H](O)[C@@H]2O)c(=O)n1 [Cytarabine, 4-amino-1-[(2R,3S,4S,5R)-3,4-dihydroxy-5-(hydroxymethyl)oxolan-2-yl]pyrimidin-2-one]
- Synergistic effect of CLPB ablation with the drug [2]: no synergistic effect

Structure (SMILES): COc1cc(-n2c(=S)[nH]c3ccccc3c2=O)c(Cl)cc1Cl [Mdivi-1, 3-(2,4-dichloro-5-methoxyphenyl)-2-sulfanylidene-1H-quinazolin-4-one]
- Combination effect with AMG176 [3]: synergistic effects with AMG176

Structure (SMILES): CC1(C)CCC(CN2CCN(c3ccc(C(=O)NS(=O)(=O)c4ccc(NCC5CCOCC5)c([N+](=O)[O-])c4)c(Oc4cnc5[nH]ccc5c4)c3)CC2)=C(c2ccc(Cl)cc2)C1 [Venetoclax, 4-[4-[[2-(4-chlorophenyl)-4,4-dimethylcyclohexen-1-yl]methyl]piperazin-1-yl]-N-[3-nitro-4-(oxan-4-ylmethylamino)phenyl]sulfonyl-2-(1H-pyrrolo[2,3-b]pyridin-5-yloxy)benzamide]
- Synergy of CLPB deletion with Venetoclax in vivo (bioluminescence, circulating GFP+ leukemic cells) ([4]; 100 mg/kg daily oral gavage day 6 to day 20): synergizes efficiently with Venetoclax in both Venetoclax-sensitive and resistant xenografts
- CLPB and OPA1 protein levels in wild-type tumors at late stages versus vehicle-treated mice ([4]; sorted GFP+ sgRosa leukemia cells from bone marrow): significantly elevated CLPB and OPA1 protein levels
- Cell death by Annexin-V staining (AML cells; AML cells, 16 hrs): cell death
- Cell death induced by Venetoclax upon depletion of OPA1 (AML cells; THP-1, 4 μM, 16 hrs): enhances cell death
- Annexin-V cell death in cells transduced with sgRNAs targeting CLPB versus negative controls (AML cells; puromycin-selected AML cells, 16 hrs): hypersensitivity of these cells to Venetoclax
- Increase of Venetoclax concentration required for the 50% cell death in VR cell lines in respect to the original clones (Par.) ([5]; MOLM-13 and MV4-11 VR versus parental): more than 100 fold
- Sensitivity of VR cells to Venetoclax upon ablation of CLPB ([5]; VR MOLM-13 and MV4-11 with CLPB sgRNAs): significantly re-sensitized VR cells
- Patients that do not respond upfront (AML patients; Venetoclax with hypomethylating agents or low dose cytarabine): approximately 30%
- Response rates, single-agent Venetoclax in AML (AML patients; monotherapy): modest and rather short-lived
- Mitochondrial depolarization in CLPB-knockout cells (TMRM) ([6]; AML cells lacking CLPB versus control): more prone to Venetoclax-induced mitochondrial depolarization
- Mitochondrial membrane potential (TMRM) ([6]; THP-1 4 μM, MOLM-13 35 nM): depolarization of mitochondria
- Venetoclax IC50 upon CLPB depletion ([2]; CLPB sgRNAs versus sgRosa, all the cell lines tested, 48 hours): significantly reduced the IC50
- Venetoclax half maximal inhibitory concentration (IC50) upon deletion of BAX and PMAIP1 ([2]; KASUMI-1 and MOLM-13 cells, 48 hours, Cell-TiterGlo): significant increase
- Sensitivity of p53-deficient MOLM-13 to Venetoclax upon CLPB depletion ([2]; p53-KO clones B10 and B11, sgCLPB #1, 48 hours): fully re-sensitize p53-deficient MOLM-13 to Venetoclax treatment
- Venetoclax IC50 with TP53 sgRNAs ([2]; p53 wild-type MOLM-13 and p53-mutant KASUMI-1, 48 hours): increased the Venetoclax IC50 in p53 wild-type MOLM-13 but not p53-mutant KASUMI-1
- Caspase-3 activation in AML cells lacking CLPB relative to wild-type ([7]; MOLM-13 35 nM, THP-1 4 μM, 16 hrs): prevalent caspase-3 activation
- CLPB protein levels in cells surviving drug treatment [7]: significant increase in the CLPB protein
- Caspase-3 cleavage ([7]; THP-1, 4 μM, 16 hrs): caspase activation
- OPA1 long and short forms (western blot) ([7]; THP-1, 4 μM, 16 hrs): decrease in the long (L-OPA1) forms and accumulation of short (S-OPA1) forms of OPA1
- Mitochondrial ultrastructure after treatment [8]: abnormal ultrastructure after Venetoclax treatment, characterized by a lower number of cristae and increase of the cristae lumen width

Structure (SMILES): CC(=O)[C@]1(O)Cc2c(O)c3c(c(O)c2[C@@H](O[C@H]2C[C@H](N)[C@H](O)[C@H](C)O2)C1)C(=O)c1ccccc1C3=O [Idarubicin, (7S,9S)-9-acetyl-7-{[(2R,4S,5S,6S)-4-amino-5-hydroxy-6-methyloxan-2-yl]oxy}-6,9,11-trihydroxy-5,7,8,9,10,12-hexahydrotetracene-5,12-dione]
- Synergistic effect of CLPB ablation with the drug [2]: no synergistic effect
- CLPB protein levels in cells surviving drug treatment [7]: did not lead to increase of CLPB protein levels

Structure (SMILES): CO[C@H]1/C=C/C[C@H](C)[C@@H](C)S(=O)(=O)NC(=O)c2ccc3c(c2)N(C[C@@H]2CC[C@H]21)C[C@@]1(CCCc2cc(Cl)ccc21)CO3 [AMG176, (3′R,4S,6′R,7′S,8′E,11′S,12′R)-7-chloro-7′-methoxy-11′,12′-dimethyl-13′,13′-dioxospiro[2,3-dihydro-1H-naphthalene-4,22′-20-oxa-13λ6-thia-1,14-diazatetracyclo[14.7.2.03,6.019,24]pentacosa-8,16(25),17,19(24)-tetraene]-15′-one]
- Apoptosis induced by AMG176 upon CLPB depletion (AML cells; MOLM-13 and KASUMI-1 with sgCLPB, 22 hrs): enhances the apoptosis
